Assay results taken from patent publication US11505533B2, “Metabolically stable N-acylaminooxadiazoles useful as antibacterial agents” (MICROBIOTIX, INC., priority 2017, dated 2022).

Columns and labels:
[1] = molecular target: CYP450, 2D6 (Homo sapiens, UniProt P10635); settings: 10 µM
[2] = molecular target: CYP450, 3A4 (Homo sapiens, UniProt P08684); settings: 10 µM
[3] = molecular target: T1, CYP450, 1A2 (Homo sapiens, UniProt P05177); settings: 10 µM
T1 sequence (P05177 1-516): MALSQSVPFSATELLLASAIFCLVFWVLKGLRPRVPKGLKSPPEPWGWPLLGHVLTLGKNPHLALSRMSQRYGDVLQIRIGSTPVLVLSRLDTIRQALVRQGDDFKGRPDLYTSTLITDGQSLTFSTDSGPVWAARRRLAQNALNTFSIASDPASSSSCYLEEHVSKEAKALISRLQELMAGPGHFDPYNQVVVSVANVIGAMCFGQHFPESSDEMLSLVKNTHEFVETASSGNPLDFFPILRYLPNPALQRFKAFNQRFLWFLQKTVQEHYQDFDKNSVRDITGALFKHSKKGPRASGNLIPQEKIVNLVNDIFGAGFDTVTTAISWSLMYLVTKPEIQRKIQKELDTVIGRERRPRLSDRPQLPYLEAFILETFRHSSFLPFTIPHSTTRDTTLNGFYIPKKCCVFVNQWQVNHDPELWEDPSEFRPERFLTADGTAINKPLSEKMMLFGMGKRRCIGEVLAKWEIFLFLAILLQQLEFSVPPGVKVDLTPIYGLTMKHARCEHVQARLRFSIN

[4] = molecular target: CYP3A4 (Homo sapiens, UniProt P08684)
Sequence of CYP3A4 (P08684 whole entry): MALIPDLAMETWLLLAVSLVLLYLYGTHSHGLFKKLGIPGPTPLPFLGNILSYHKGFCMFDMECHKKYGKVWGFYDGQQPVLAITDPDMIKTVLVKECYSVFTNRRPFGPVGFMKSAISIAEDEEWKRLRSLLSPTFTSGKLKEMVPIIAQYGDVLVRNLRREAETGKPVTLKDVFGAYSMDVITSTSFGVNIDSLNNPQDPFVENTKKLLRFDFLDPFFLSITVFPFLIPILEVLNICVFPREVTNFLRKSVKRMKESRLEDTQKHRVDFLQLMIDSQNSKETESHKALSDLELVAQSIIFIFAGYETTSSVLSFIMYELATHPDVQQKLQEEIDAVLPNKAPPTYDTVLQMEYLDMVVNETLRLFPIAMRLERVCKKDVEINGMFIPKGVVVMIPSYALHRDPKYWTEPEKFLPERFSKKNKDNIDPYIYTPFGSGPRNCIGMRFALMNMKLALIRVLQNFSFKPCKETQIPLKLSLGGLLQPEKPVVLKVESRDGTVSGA

[5] = molecular target: CYP2C9 (Homo sapiens, UniProt P11712)
Sequence of CYP2C9 (P11712 whole entry): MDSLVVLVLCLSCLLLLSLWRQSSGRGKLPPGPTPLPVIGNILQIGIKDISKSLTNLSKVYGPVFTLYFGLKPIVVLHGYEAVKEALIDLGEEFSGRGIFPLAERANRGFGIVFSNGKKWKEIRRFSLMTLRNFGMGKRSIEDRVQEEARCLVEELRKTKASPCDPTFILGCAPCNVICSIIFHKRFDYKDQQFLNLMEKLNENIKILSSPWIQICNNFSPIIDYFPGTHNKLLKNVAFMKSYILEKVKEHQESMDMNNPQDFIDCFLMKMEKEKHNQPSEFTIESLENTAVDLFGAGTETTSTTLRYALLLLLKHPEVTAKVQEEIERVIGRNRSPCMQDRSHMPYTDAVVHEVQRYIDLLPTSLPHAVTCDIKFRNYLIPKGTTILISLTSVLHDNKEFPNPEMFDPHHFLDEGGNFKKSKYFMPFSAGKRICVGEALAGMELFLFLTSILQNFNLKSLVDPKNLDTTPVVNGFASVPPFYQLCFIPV

Sequence of CYP450, 3A4 (P08684 whole entry): as the sequence (P08684 whole entry) above
Sequence of CYP450, 2D6 (P10635 whole entry): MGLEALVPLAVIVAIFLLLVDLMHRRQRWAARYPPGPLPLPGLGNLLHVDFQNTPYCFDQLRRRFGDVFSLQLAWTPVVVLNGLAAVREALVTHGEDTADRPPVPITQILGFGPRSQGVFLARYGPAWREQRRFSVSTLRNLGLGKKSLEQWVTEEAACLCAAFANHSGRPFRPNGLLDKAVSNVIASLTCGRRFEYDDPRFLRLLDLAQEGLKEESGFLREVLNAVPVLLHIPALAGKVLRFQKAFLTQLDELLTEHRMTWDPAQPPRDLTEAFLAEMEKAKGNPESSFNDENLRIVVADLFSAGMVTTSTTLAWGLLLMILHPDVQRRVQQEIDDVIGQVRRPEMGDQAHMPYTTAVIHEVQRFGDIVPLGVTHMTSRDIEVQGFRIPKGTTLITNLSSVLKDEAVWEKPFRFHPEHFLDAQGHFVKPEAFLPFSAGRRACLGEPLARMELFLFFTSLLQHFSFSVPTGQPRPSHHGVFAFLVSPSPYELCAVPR

Structure (SMILES) | % Inhibition [1] [%] | % Inhibition [2] [%] | % Inhibition [3] [%] | inhibition at 10 µM [4] [%] | inhibition at 10 µM [5] [%]
O=C(Nc1nnc(-c2ccc(F)cc2)o1)N1CCc2ccccc2C1 [MBX-4132] | 10 | 7 | 9 | – | –
O=C(Nc1nnc(-c2ccc(F)cc2)o1)c1ccc(Oc2ccccc2)nc1 [MBX-4237] | – | – | – | 6 | 5
